Measured values taken from US8383582B2, “Inhibitor against forming biofilm comprising κ-casein macropeptide” (Industry Foundation of Chonnam National University, priority 2010, dated 2013).
Values joined by “and” are separate entries in the source; they are usually repeats but may differ in a detail not shown here. Equal values may be shown once.

Legend:
L. monocytogenes Scott A [1] = assay: Light microscopy of biofilm on PVC microtiter plates and glass tube; assay type: cell-based, Listeria monocytogenes; conditions: MWB 24 h, CMP 0.4 mg/ml
Text: The quantification of biofilm production on plastic microtiter plates and glass tubes was based on a previously described method (Djordjevic et al., 2002). As abiotic surfaces for biofilm formation, 96-well polyvinyl chloride (PVC) microplates (BD Biosciences, San Jose, Calif., USA) and Pyrex glass tube (10 mm by 20 mm) were used. Overnight cultures of 12 strains of L. monocytogenes were twice washed with PBS and inoculated at 10^6 CFU/ml in modified Welshimer's broth (MWB) supplemented different concentrations of CMP (Davisco Foods International, Inc., MN, USA; 0.1, 0.2, and 0.4 mg/ml or 1.0, 2.0, and 4.0 mg/ml). After incubation at 30° C. without agitation for 24 and 48 h, the microplates were twice rinsed thoroughly with double-distilled water, and a 0.1% (w/v) solution of crystal violet (CV) was added to stain the attached cells. […] The absorbance at 595 nm of the solubilized dye was subsequently determined by using an enzyme-linked immunosorbent assay (ELISA) plate reader (Molecular Devices, Sunnyvale, Calif., USA). […]
In addition, biofilm formations on PVC microtiter plates and glass tube by L. monocytogenes incubated in MWB for 24 h in the presence or absence of CMP (0.4 mg/ml) were analyzed using light microscopy and microscopic analyses were illustrated in FIGS. 3 and 4, respectively.

[2] = tested on: L. monocytogenes Scott A to HT-29 cell; assay: Adhesion analysis on HT-29 cells; assay type: cell-based, Listeria monocytogenes; conditions: CMP 0.4 mg/ml, at the lower MOI, 30 min 37° C.
Text: (§1) The human intestinal epithelial cell line HT-29 and the human gastric epithelial cell line AGS were purchased from the Korea Cell Line Bank (KCLB; Seoul, Korea). HT-29 cells have been extensively used as a model system for studying interaction of enteric pathogens with intestinal epithelial cells. All media and fetal bovine serum (FBS) were obtained from Gibco BRL (Life Technologies Inc., Grand Island, N.Y., USA) and JBI (Jeil Biotech services Inc., Seoul, Korea). The HT-29 and AGS cells were grown in RPMI-1640 medium which was supplemented with 10% heat-inactivated FBS. The cells were routinely cultured at 37° C. in 5% CO2 incubator with 6-well or 12-well tissue culture plates for adhesion and invasion assays and in 100-mm-diameter tissue culture plates for RNA isolation.
(§2) Prior to the adhesion assay, the HT-29 and the AGS cells monolayers were washed three times in pre-warm PBS (25° C.) to remove any culture medium and non-attached cells. The adhesion assays were performed using L. monocytogenes Scott A according to the method of Hagman et al. (1999) with modifications. Bacteria were grown overnight at 37° C. in TSBYE. […]

[3] = tested on: L. monocytogenes Scott A to AGS cell; assay: Adhesion analysis on AGS cells; assay type: cell-based, Listeria monocytogenes; conditions: CMP 0.4 mg/ml, at the lower MOI, 30 min 37° C.
Text: as §1, §2

[4] = tested on: virulence-associated genes of L. monocytogenes; assay: Semi-quantitative RT-PCR of virulence-associated genes; assay type: cell-based, Listeria monocytogenes; conditions: 0.4 mg/ml CMP; L. monocytogenes Scott A infected HT-29 cells
Procedure: The regulation of virulence-associated genes was investigated by using semi-quantitative RT-PCR techniques. Total RNA was isolated from the each treated samples using a RNeasy™ Total RNA Kit (Qiagen) with manufacturer's manuals. One μg total RNA was reverse transcribed in 20 μl reaction mixtures with SuperScript™ III First-Strand cDNA Synthesis Kit (Invitrogen, Carlsbad, Calif.). Then, cDNA were then amplified by using Taq DNA polymerase (TaKaRa, Japan). For the iap, denaturation for 5 min at 94° C. was followed by 40 cycles composed of 30 s denaturation at 94° C., 45 s annealing at 60° C. (TABLE 4), and 1 min elongation at 72° C. Except for the iap, denaturation for 5 min at 94° C. was followed by 35 cycles composed of 1 min denaturation at 94° C., 2 min annealing at 60° C. (TABLE 4), and 1 min elongation at 72° C. The last cycle was followed by 10 min final elongation at 72° C. Oligonucleotide (Bioneer, Daejun, Korea) sequences used for the amplification of each gene fragments including expression of proteins (HT-29) are shown in TABLE 4 (Haller et al., 2000). The RT-PCR products were electrophoresed in a 1.5% agarose gel and visualized by ethidium bromide (EtBr) staining. The intensity of each band was determined by densitometric analysis of gels using Kodak DC290 zoom digital camera and Kodak 1D image analysis software (Eastman Kodak Company, Rochester, N.Y., USA).

L. monocytogenes Scott A [5] = assay: Nematode Caenorhabditis elegans killing assay; assay type: in vivo
Procedure: Caenorhabditis elegans killing assay were performed as initially described by Tenor et al. (2004) with modification. Briefly, L. monocytogenes Scott A was grown in 10 ml of TSBYE culture for overnight. Culture samples (each, 10 μl) were then spread on NGM agar plates (Brenner, 1974; diameter of each, 30 mm). In the present invention, instead of wild-type Bristol N2 worms, we tested killing of C. elegans glp-4 mutant worms. […] (Mylonakis et al., 2002). For each strain, healthy 12 nematodes in L4 stage were transferred from NGM plates seeded with Escherichia coli OP50 to the plates seeded with L. monocytogenes Scott A in the absence or presence of 0.4 mg/ml of CMP and incubated at 25° C. The number of living worms per plate was determined at various time points for 15 days with a light microscopy (Olympus CH30, Tokyo, Japan). […] Each experimental condition was tested in duplicate or triplicate. In analogous experiments, E. coli OP50 was used as controls.

κ-casein macropeptide [CMP]
attached cells (light microscopy) (L. monocytogenes Scott A [1]): only a small number of L. monocytogenes Scott A cells had attached | adhesion of L. monocytogenes Scott A [2]: prevented | adhesion of L. monocytogenes Scott A [3]: prevented | mRNA level of hlyA [4]: significantly repressed | mRNA level of iap [4]: significantly repressed | mRNA level of inlA [4]: significantly repressed | mRNA level of plcB [4]: significantly repressed | worms survived (L. monocytogenes Scott A [5]; C. elegans glp-4 on lawn of L. monocytogenes Scott A, agar medium with CMP 0.4 mg/ml, 8 days, 25° C., 37.5% without CMP): 54% and 50% | survival of C. elegans from the infection of L. monocytogenes (L. monocytogenes Scott A [5]; CMP 0.4 mg/ml, 15 days): prolong the survival ability
